Test results: patent EP4803083A1, “USE OF PYRROLOTRIAZINE COMPOUND IN PREPARATION OF DRUG FOR PREVENTING AND/OR TREATING FIBROSIS OR RELATED DISEASE THEREOF” (Jumbo Drug Bank Co., Ltd., priority 2023, dated 2025)

How the values were obtained:
[1] = tested on: bleomycin-induced mouse pulmonary fibrosis model; experiment: Bleomycin-induced pulmonary fibrosis model: lung inflammation scoring (HE staining, Szapiel Score); format: in vivo, C57BL/6 mice; conditions: high-dose group (50 mg/kg); endpoint 28 days; compared with the vehicle treatment group; p value<0.05
Description: (§1) Experimental preparation: C57BL/6 mice, 8-10 weeks old, female, body weight approximately 18-22 g. Bleomycin. 1% sodium pentobarbital, sterile normal saline, insulin syringe.
(§2) Drug: p-toluenesulfonate salt of Compound 12 (10 mg/mL). The specific drug preparation method was as follows: 282.87 mg of the p-toluenesulfonate salt powder of Compound 12 was weighed and mixed with 1.050 mL of DMSO solution (preheated to 45°C). The mixture was placed in an ultrasonic water bath until completely dissolved. Subsequently, 19.95 mL of mixed solvent (comprising 1.995 mL of Solutol, 1.995 g of hydroxypropyl-β-cyclodextrin, and 15.96 mL water ) was added. The resulting mixture was sonicated again until completely dissolved to obtain a working solution with a concentration of 10 mg/mL. 1. After the mice begin to adapt to the environment, the experiment is started. The experimental animals are divided into five groups: normal control group, model group (Bleomycin group), low-dose treatment group (25 mg/kg), high-dose treatment group (50 mg/kg), and vehicle treatment group. […]
(§3) 5. […] According to the time point, the mice were euthanized and samples were collected for subsequent experiments; the day of modeling is recorded as day 1. […]

[2] = tested on: bleomycin-induced mouse pulmonary fibrosis model; experiment: Bleomycin-induced pulmonary fibrosis model: lung fibrosis grading score (Masson staining, Ashcroft Score); format: in vivo, C57BL/6 mice; conditions: endpoint 28 days, compared with the vehicle-treated group, p value <0.05
Description: as §1, §2, §3

Liver spheroids [3] = experiment: In vitro 3D liver NASH model: TG detection; format: cell-based, human; conditions: 60 nM; Day 10; compared with the NASH group; p<0.05
Description: (§4) Four types of human primary cells were used for modeling, including human primary hepatocytes (PHH), human primary liver sinusoidal endothelial cells (LSEC), human primary hepatic stellate cells (HSC), and human primary Kupffer cells (KC). The total number of cells in each model was 3000.
(§5) The cell connector NAC-Linker A was mixed with hepatocytes and incubated at room temperature for 30 minutes so that NAC-Linker A was fixed on the cell membrane surface. At the same time, the cell connector NAC-Linker B was mixed with the mixture of intrahepatic non-parenchymal cells and incubated at room temperature for 30 minutes so that NAC-Linker B was fixed on the cell membrane surface; (2) after incubation, the hepatocytes carrying NAC-Linker A and the intrahepatic non-parenchymal cells carrying NAC-Linker B were mixed evenly, and 20-30 µl droplets were prepared on the lid of a culture plate using a pipette. PBS solution and liver physiological culture medium (Puheng Biomedicine (Shanghai) Co., Ltd., liver physiological culture medium (human), catalog No. M0001) were added to the wells of the culture plate. The prepared culture plate lid was inverted and placed onto the culture plate to form hanging drops. The culture plate with hanging drops was placed upside down in a 37°C incubator for 12-24 hours. […]

IL-6 = experiment: In vitro 3D liver NASH model: cytokine detection (IL-6); format: cell-based, human; conditions: 60 nM; culture medium supernatant; compared with the NASH group; significant difference p<0.05
Description: as §4
as §5, with “drops.” for “drops. The culture plate with hanging drops was placed upside down in a 37°C incubator for 12-24 hours.”
The culture medium supernatant was collected and tested using an IL-6 detection kit according to the manufacturer's instructions, with measurement performed using a microplate reader.

Liver spheroids [4] = experiment: In vitro 3D liver NASH model: H&E staining; format: cell-based, human; conditions: compared with the NASH group
Description: as §4
(§6) The cell connector NAC-Linker A was mixed with hepatocytes and incubated at room temperature for 30 minutes so that NAC-Linker A was fixed on the cell membrane surface. At the same time, the cell connector NAC-Linker B was mixed with the mixture of intrahepatic non-parenchymal cells and incubated at room temperature for 30 minutes so that NAC-Linker B was fixed on the cell membrane surface; (2) after incubation, the hepatocytes carrying NAC-Linker A and the intrahepatic non-parenchymal cells carrying NAC-Linker B were mixed evenly, and 20-30 µl droplets were prepared on the lid of a culture plate using a pipette. PBS solution and liver physiological culture medium (Puheng Biomedicine (Shanghai) Co., Ltd., liver physiological culture medium (human), catalog No. M0001) were added to the wells of the culture plate. The prepared culture plate lid was inverted and placed onto the culture plate to form hanging drops. The culture plate with hanging drops was placed upside down in a 37°C incubator for 12-24 hours. Under the curvature of the lower surface of the hanging drops and gravity, complementary DNA pairing in the NAC-Linker formed connections to generate a 3D liver organoid structure.
(§7) After successful modeling on Day 0, the samples were divided into 5 groups according to different treatments, with 9 samples in each group. […]
Using ImageJ software, the steatotic area on the slides after H&E staining was quantified, and the ratio of the steatotic area to the total area of each slide was calculated (results are shown in Figure 6).

Liver spheroids [5] = experiment: In vitro 3D liver NASH model: Sirius Red staining; format: cell-based, human; conditions: for Sirius Red staining: fibrosis area in the liver spheroids: compared with the NASH group
Description: as §4, §6, §7
Using ImageJ software, the fibrosis area on the slides after Sirius Red staining was quantified, and the ratio of the fibrosis area to the total area of each slide was calculated (Figure 7).

COL1 and α-SMA = experiment: In vitro 3D liver NASH model: COL1 and α-SMA immunofluorescence staining; format: cell-based, human; conditions: 10 nM, 30 nM and 60 nM groups
Description: as §4
as §5, with “plate.” for “plate. The prepared culture plate lid was inverted and placed onto the culture plate to form hanging drops. The culture plate with hanging drops was placed upside down in a 37°C incubator for 12-24 hours.”
Liver spheroids were paraffin-embedded and sectioned, subjected to immunofluorescence staining, mounted, and photographed under a fluorescence microscope, and the results are shown in Figure 5

H&E staining: hepatocyte steatosis and ballooning degeneration (Liver spheroids [4]; 30 nM): significant histological improvement | H&E staining: hepatocyte steatosis and ballooning degeneration (Liver spheroids [4]; 60 nM): significant histological improvement
SMILES: Cc1cc(Nc2ncnn3cc(OCCN4CCC(F)(F)C4)c(C)c23)c(=O)n2c1C(=O)NC21CCCC1 [Compound 12 p-toluenesulfonate]
Szapiel Score of lung tissue fibrosis [1]: significantly lower score | Ashcroft Scores of lung tissue fibrosis ([2]; high-dose group (50 mg/kg)): significantly lower scores | Ashcroft Scores of lung tissue fibrosis ([2]; low-dose group (25 mg/kg)): significantly lower scores | TG level (Liver spheroids [3]): significant difference | inflammatory cytokine level (IL-6) (IL-6): improved | H&E staining: hepatocyte steatosis and ballooning degeneration (Liver spheroids [4]; 10 nM): improvement in hepatocyte steatosis and ballooning degeneration | Sirius Red staining: degree of liver fibrosis (Liver spheroids [5]; 10 nM, compared with the normal control group (so in the source)): trend of improvement | Sirius Red staining: fibrosis area in the liver spheroids (Liver spheroids [5]; 30 nM): significant differences | Sirius Red staining: fibrosis area in the liver spheroids (Liver spheroids [5]; 60 nM): significant differences | COL1 and α-SMA immunofluorescence staining (COL1 and α-SMA): therapeutic effect on liver fibrosis and exhibits dose dependence
